Laboratory results as given in PubChem BioAssay (NCI).
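Tested at 5 concentrations; 48 h exposure; 96-well plates; endpoints linearly interpolated, else capped at highest concentration. TGI: concentration producing complete growth inhibition.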 Where a SMILES comes first, the peptide text is derived from it. Side-chain parts run from the residue outwards. The star is where a group is joined. Cbz = O=C(OCc1ccccc1)*; Boc = CC(C)(C)OC(=O)*

Legend:
Assay in all cases: NCI tumour cell line growth inhibition, 48 h
K-562 leukemia = tested on: K-562 leukemia
MOLT-4 leukemia = tested on: MOLT-4 leukemia
MDA-MB-231 breast = tested on: MDA-MB-231 breast
BT-549 breast = tested on: BT-549 breast
U251 CNS = tested on: U251 CNS
RPMI-8226 leukemia = tested on: RPMI-8226 leukemia
HCT-15 colon = tested on: HCT-15 colon
SR leukemia = tested on: SR leukemia
NCI-H226 lung = tested on: NCI-H226 lung
SF-268 CNS = tested on: SF-268 CNS
A549 NSCLC = tested on: A549 NSCLC
SK-MEL-2 melanoma = tested on: SK-MEL-2 melanoma
OVCAR-5 ovarian = tested on: OVCAR-5 ovarian
OVCAR-8 ovarian = tested on: OVCAR-8 ovarian
COLO 205 colon = tested on: COLO 205 colon

CC(C)CC(NC(=O)OCc1ccccc1)C(=O)NCCCCC(NC(=O)C(CCCCNC(=O)C(CC(C)C)NC(=O)OCc1ccccc1)NC(=O)C(CCCCNC(=O)C(CC(C)C)NC(=O)OCc1ccccc1)NC(=O)C(CCCCNC(=O)C(CC(C)C)NC(=O)OCc1ccccc1)NC(=O)OC(C)(C)C)C(=O)O (stereo unspecified) (Boc-K([Leu-Cbz])K([Leu-Cbz])K([Leu-Cbz])K([Leu-Cbz])-OH; configuration not given here)
TGI (K-562 leukemia): > 25 µM | TGI (MOLT-4 leukemia): > 25 µM | TGI (MDA-MB-231 breast): > 25 µM | TGI (BT-549 breast): > 25 µM | TGI (U251 CNS): > 25 µM | TGI (RPMI-8226 leukemia): > 25 µM | TGI (HCT-15 colon): > 25 µM | TGI (SR leukemia): > 25 µM | TGI (NCI-H226 lung): > 25 µM | TGI (SF-268 CNS): > 25 µM | TGI (A549 NSCLC): > 25 µM | TGI (SK-MEL-2 melanoma): > 25 µM | TGI (OVCAR-5 ovarian): > 25 µM | TGI (OVCAR-8 ovarian): > 25 µM

O=C1O[C@H](COC(=O)c2ccccc2)[C@@H](OC(=O)c2ccccc2)C=C1OC(=O)c1ccccc1
TGI (K-562 leukemia): 57.4 µM | TGI (COLO 205 colon): 38.3 µM | TGI (MOLT-4 leukemia): 56 µM | TGI (MDA-MB-231 breast): 36.2 µM | TGI (BT-549 breast): 43.7 µM | TGI (U251 CNS): 32.3 µM | TGI (RPMI-8226 leukemia): 71.8 µM | TGI (HCT-15 colon): 39.6 µM | TGI (SR leukemia): 46.9 µM | TGI (NCI-H226 lung): 45.6 µM | TGI (SF-268 CNS): 36.8 µM | TGI (SK-MEL-2 melanoma): 50.8 µM | TGI (OVCAR-5 ovarian): 40.9 µM | TGI (OVCAR-8 ovarian): 45.4 µM

CCC(C)N1CN(c2ccccc2)C2(CCN(CCCC(=O)c3ccc(F)cc3)CC2)C1=O (stereo unspecified)
TGI (K-562 leukemia): > 100 µM | TGI (COLO 205 colon): 0.348 µM | TGI (MOLT-4 leukemia): 23.2 µM | TGI (MDA-MB-231 breast): 23.1 µM | TGI (BT-549 breast): 26 µM | TGI (U251 CNS): 16.9 µM | TGI (RPMI-8226 leukemia): 31.5 µM | TGI (HCT-15 colon): 17.9 µM | TGI (SR leukemia): 23.3 µM | TGI (SF-268 CNS): 29 µM | TGI (A549 NSCLC): 20.4 µM | TGI (SK-MEL-2 melanoma): 28.7 µM | TGI (OVCAR-5 ovarian): 8.12 µM

OC(C1CCCC1=N/N=C1/CCCC1C(O)(C(F)(F)Cl)C(F)(F)Cl)(C(F)(F)Cl)C(F)(F)Cl (stereo unspecified)
TGI (K-562 leukemia): > 10 µM | TGI (COLO 205 colon): > 10 µM | TGI (MOLT-4 leukemia): > 10 µM | TGI (MDA-MB-231 breast): > 10 µM | TGI (BT-549 breast): > 10 µM | TGI (U251 CNS): > 10 µM | TGI (RPMI-8226 leukemia): > 10 µM | TGI (HCT-15 colon): > 10 µM | TGI (NCI-H226 lung): > 10 µM | TGI (SF-268 CNS): > 10 µM | TGI (A549 NSCLC): > 10 µM | TGI (SK-MEL-2 melanoma): > 10 µM | TGI (OVCAR-5 ovarian): > 10 µM | TGI (OVCAR-8 ovarian): > 10 µM

C[N+](C)(N)Cc1csc(-c2ccc(Cl)cc2)n1
TGI (K-562 leukemia): > 100 µM | TGI (COLO 205 colon): > 100 µM | TGI (MDA-MB-231 breast): > 100 µM | TGI (BT-549 breast): > 100 µM | TGI (U251 CNS): > 100 µM | TGI (RPMI-8226 leukemia): > 100 µM | TGI (HCT-15 colon): > 100 µM | TGI (SR leukemia): > 100 µM | TGI (NCI-H226 lung): > 100 µM | TGI (SF-268 CNS): > 100 µM | TGI (A549 NSCLC): > 100 µM | TGI (SK-MEL-2 melanoma): > 100 µM | TGI (OVCAR-5 ovarian): > 100 µM | TGI (OVCAR-8 ovarian): > 100 µM

CC(=N\N=C\c1ccccn1)/C(C)=N/N=C/c1ccccn1
TGI (COLO 205 colon): > 100 µM | TGI (MDA-MB-231 breast): > 100 µM | TGI (BT-549 breast): > 100 µM | TGI (U251 CNS): > 100 µM | TGI (RPMI-8226 leukemia): > 100 µM | TGI (HCT-15 colon): > 100 µM | TGI (SR leukemia): > 100 µM | TGI (NCI-H226 lung): > 100 µM | TGI (SF-268 CNS): > 100 µM | TGI (A549 NSCLC): > 100 µM | TGI (SK-MEL-2 melanoma): > 100 µM | TGI (OVCAR-5 ovarian): > 100 µM | TGI (OVCAR-8 ovarian): > 100 µM

FC(F)(F)c1nc2cc(SSc3cc4nc(C(F)(F)F)[nH]c4cc3Cl)c(Cl)cc2[nH]1
TGI (K-562 leukemia): > 100 µM | TGI (COLO 205 colon): > 100 µM | TGI (MOLT-4 leukemia): > 100 µM | TGI (MDA-MB-231 breast): > 100 µM | TGI (BT-549 breast): > 100 µM | TGI (U251 CNS): > 100 µM | TGI (RPMI-8226 leukemia): > 100 µM | TGI (HCT-15 colon): > 100 µM | TGI (NCI-H226 lung): > 100 µM | TGI (SF-268 CNS): > 100 µM | TGI (A549 NSCLC): > 100 µM | TGI (SK-MEL-2 melanoma): > 100 µM | TGI (OVCAR-5 ovarian): > 100 µM | TGI (OVCAR-8 ovarian): > 100 µM
